Reference: publication PMC11937066, “Abemaciclib in combination with therapies for patients with metastatic breast cancer: a phase 1b study” (Frontiers in Oncology, 2025)
Like-named read-outs stand apart in the source and are kept apart here.

Tests used:
[1] = test system: patients with HR+, HER2- or HER2+ metastatic breast cancer; test: Patient disposition and dose adjustments; settings: Part G, with abemaciclib and fulvestrant
HER2+ breast cancer = settings: abemaciclib combined with fulvestrant and trastuzumab versus standard of care chemotherapy plus trastuzumab; cited from earlier work
[2] = Plasma pharmacokinetics, noncompartmental analysis (LC-MS/MS); type: in vivo, human
Protocol: In parts E, F, and H, PK sampling was performed for all analytes pre-dose on Cycle 1 Day 1, Cycle 1 Day 15, and Cycle 2 Day 1, as well as at 1, 2, 4, 6, 8, and 10 hours after dosing on Cycle 1 Day 1 and Cycle 2 Day 1. In Part H, PK sampling was performed for all analytes pre-dose on Cycle 1 Day 1, Cycle 1 Day 15, and Cycle 2 Day 1, as well as at 1, 2, 4, 6, 8, and 10 hours after dosing on Cycle 1 Day 1 and 2, 4, 6, 8, and 10 hours after dosing on Cycle 2 Day 1. In Parts F and H, additional samples were drawn pre-dose on Day 1 of Cycles 3–5 and after trastuzumab infusion on Day 1 of Cycles 1–5. In part H, additional samples were also drawn after pertuzumab infusion on Day 1 Cycle 4 and 5. In Part G, an additional pre-dose sample was drawn on Cycle 3 Day 1, and fulvestrant samples were obtained pre-dose on Day 1 of Cycles 1–3 and Day 15 of Cycle 1.
Samples were analyzed for abemaciclib (and its metabolites), exemestane, everolimus, fulvestrant, LY3023414, and pertuzumab using a validated liquid chromatography-tandem mass spectrometry method (abemaciclib and metabolites: Q^2 solutions, Ithaca, NY, USA; exemestane and everolimus: BASi, West Lafayette, IN, USA; fulvestrant: Charles River Laboratories, Montreal, Quebec, Canada; LY3023414: Covance Laboratories Inc, Madison, WI, USA; pertuzumab: Altasciences Company Inc., Quebec, Canada). Trastuzumab was analyzed using a validated Gyrolab xP method (PPD, Richmond, VA, USA).
Standard noncompartmental PK parameters were computed using Phoenix WinNonlin 64 Build 8.0/8.1 (Pharsight Corporation, Mountain View, CA, USA). This analysis included estimation of Cmax, tmax, Clast, tlast, and AUC0-tlast. AUC calculations were performed using the log linear trapezoidal method.

[3] = test system: HR+ advanced breast cancer; set-up: method as in PMID 32887722; settings: in combination with ribociclib and fulvestrant; cited from earlier work
[4] = test system: PIK3CA-mutated, HR+, HER2- ABC; set-up: method as in doi:10.1158/1538-7445.SABCS23-GS03-13; settings: with fulvestrant and palbociclib, first-line treatment; cited from earlier work

## CO[C@@H](C)Cn1c(=O)n(C)c2cnc3ccc(-c4cncc(C(C)(C)O)c4)cc3c21 [LY3023414]
[1]
  Additional patients who discontinued LY3023414 due to AEs: two
[1]; 12 patients
  LY3023414 dose adjustments: 10 patients
  LY3023414 dose omission: eight
  LY3023414 dose reduction: seven

## CCN1CCN(Cc2ccc(Nc3ncc(F)c(-c4cc(F)c5nc(C)n(C(C)C)c5c4)n3)nc2)CC1 [abemaciclib]
HER2+ breast cancer
  Progression-free survival: significantly improved
[2]; Part E Cohort 1, abemaciclib 150 mg Q12H with exemestane + everolimus
  mean accumulation ratio (based on Cmax): 3.16
[2]; Part E Cohort 1, multiple doses abemaciclib 150 mg Q12H with exemestane + everolimus
  mean AUC0-tlast: 3280 hr^*ng/mL
[2]; Part E Cohort 1, single dose abemaciclib 150 mg with exemestane + everolimus
  mean AUC0-tlast: 771 hr^*ng/mL
[2]; Part E Cohort 2, single dose abemaciclib 200 mg with exemestane + everolimus
  mean AUC0-tlast: 984 hr^*ng/mL
[2]; Part F, abemaciclib 150 mg Q12H with trastuzumab
  accumulation ratio based on Cmax: 2.13
[2]; Part H, single dose abemaciclib 100 mg with trastuzumab and pertuzumab
  mean AUC0-tlast: 343 hr^*ng/mL
[2]; Parts E–H
  Effect on the pharmacokinetics of the combination study drugs: no effect
[2]; all combination therapies tested
  Abemaciclib exposures compared with monotherapy PK data: consistent with monotherapy PK data
[2]; human, plasma, oral, 100 mg, Part H, single dose abemaciclib 100 mg with trastuzumab and pertuzumab, read-out: mean Cmax
  Cmax: 71.5 ng/mL
[2]; human, plasma, oral, 150 mg, Part E Cohort 1, multiple doses abemaciclib 150 mg Q12H with exemestane + everolimus, read-out: mean Cmax
  Cmax: 452 ng/mL
[2]; human, plasma, oral, 150 mg, Part E Cohort 1, single dose abemaciclib 150 mg with exemestane + everolimus, plasma, read-out: mean Cmax
  Cmax: 157 ng/mL
[2]; human, plasma, oral, 150 mg, Part F, abemaciclib 150 mg Q12H with trastuzumab, read-out: steady-state mean Cmax
  Cmax: 242 ng/mL
[2]; human, plasma, oral, 200 mg, Part E Cohort 2, single dose abemaciclib 200 mg with exemestane + everolimus, plasma, read-out: mean Cmax
  Cmax: 191 ng/mL
[2]; human, plasma, oral, Part F, single dose abemaciclib (150 mg or 200 mg) with trastuzumab, range over dose cohorts, read-out: mean Cmax
  Cmax: 133 to 148 ng/mL
[2]; human, plasma, oral, Part G, single dose 150 mg abemaciclib with 500 mg fulvestrant and 100 mg or 150 mg LY3023414, range over cohorts, read-out: abemaciclib mean Cmax
  Cmax: 131 to 139 ng/mL
[2]; human, plasma, oral, Part F, abemaciclib 150 mg Q12H with trastuzumab, read-out: steady-state mean AUC0-tlast
  AUC(0-t): 1660 ng·h/mL

## Cc1nc(NC(=O)N2CCC[C@H]2C(N)=O)sc1-c1ccnc(C(C)(C)C(F)(F)F)c1 [alpelisib]
[3]
  Feasibility of the combination: not to be feasible due to toxicity

## Nc1cc(C(F)(F)F)c(-c2cc(N3CCOCC3)nc(N3CCOCC3)n2)cn1 [buparlisib]
[3]
  Feasibility of the combination: not to be feasible due to toxicity

## C[C@H](Nc1ccc2c(c1)OCCn1cc(N3C(=O)OC[C@H]3C(F)F)nc1-2)C(N)=O [inavolisib]
[4]
  Progression-free survival: statistically significant improvement
